The values that follow come from a melting point compilation (Tetko et al.; mined from patent text by program, amines drawn as free bases though some values may be those of a salt).

Structures are written as SMILES.

As a reminder, the melting point is the temperature, or range, at which the solid turns liquid.

In the case of `C=C=COc1ccc2cc3ccccc3cc2c1`, the melting point was in the range of 90.3 to 95.6 °C. Compound `CCOC(=O)CC(NC(=O)c1cccc(NC(=O)c2csc(NC(=N)N)n2)c1)c1ccccc1` (racemic) showed a melting point of 117 °C. The value for `CC(=O)Oc1cn(C(C)=O)c2ccccc12` was 79.6 to 80.5 °C. Under `CNc1cc(F)ccc1C(=O)OC` stands 39 to 39.5 °C. `OC[C@@](O)(Cc1ccccc1)c1ccccc1` gave a melting point of 62 °C.

Regarding `O=[N+]([O-])c1ccc(-c2nc(-c3ccccc3)no2)o1`, the melting point was in the range of 164 to 166 °C. For `COc1cc2c(cc1O)CCCC(C(=O)N1CCN(C(=O)c3cc(OC)c(OC)c(OC)c3)CC1)=C2`, the melting point fell in the range of 198 to 199 °C.

Compound `Cn1cc(-c2cc3cccnc3[nH]2)c2ccc(C(=O)NC(CO)CO)cc21` showed a melting point of 247 to 249 °C. Consider `O=C(NCN1CCCCCCCC1=O)NCN1CCCC1=O`, for which the melting point was in the range of 149 to 150 °C. On to `Cc1c(-c2ccc3c(c2)C2(CCCCC2)C(=O)N3)sc2ccc(Cl)cc12`, for which the melting point lay within 256 to 258 °C. Take `COc1cc(C(=O)CCCN2CCC(OC(=O)c3cc(Cl)c(N)c4cc(C)oc34)CC2)cc(OC)c1OC`: the melting point was determined as 129 °C. Under `CCOC(=O)c1cnc(Nc2cc(OC)ccc2OC)[nH]c1=O` stands 221 to 223 °C. Under `O=C1C(=O)c2ccccc2C2=C1SCC1(CCN(C(=O)c3cn4c5c(cccc35)CCC4)CC1)O2` stands 265 to 267 °C.

Compound `CC(C)(C)c1ccc(Cn2cnc3c(-c4ccco4)ncnc32)cc1` gave a melting point of 185 to 187 °C. Under `CCOC(=O)c1ccc(C(NCC(=O)Nc2c(C(C)C)cccc2C(C)C)c2ccccc2)cc1` (configuration not stated) stands 139 to 140 °C; under `Cc1ccc(S(=O)(=O)NC(=O)OCCc2ccc(-n3c(C4CCCCC4)nc4c(C)nc(C)cc43)cc2)cc1`, 168 °C.

Consider `CS(=O)(=O)c1ccc(-c2sc(C(F)(F)F)nc2-c2ccc(F)cc2)cc1`, for which the melting point was in the range of 168 to 170 °C. Consider `Cc1cc(C=C2SC(=S)NC2=O)cc2c1OCC(=O)N2Cc1ccc(CN2CCCCC2)cc1`, for which the melting point is 277 to 278 °C. For `CN1C[C@@H](C(=O)OCc2ccccc2)NC1=O`, the melting point lay in the range of 94 to 95 °C. The value for `NCCc1ccc(OCCC(=O)O)cc1` was 216 °C; that for `O=C(O)c1cccc(Oc2ccc(C(F)(F)F)cn2)c1` was 146 °C.

The compound `COc1cc(OC)c2c(=O)[nH]c(-c3ccc(OC4CCN(C(C)=O)CC4)cc3)nc2c1` gave a melting point of 275 to 277 °C.

On to `CC(=O)c1ccc(C2CC(C)(C)CC(C)(C)C2)c(Cl)c1`, for which the melting point was 64 °C.

Take `COC(=O)[C@@H]1[C@H](/C=C/c2ccccc2)N1S(=O)c1ccc(C)cc1` (some centres not stated): the melting point was in the range of 107 to 109 °C.

In turn, `Cc1c(C)c(N2CCN(c3ccc(C(F)(F)F)cc3)CC2)c(C)c2c1OC(C)(C)C2=O` displayed a melting point of 188 to 190 °C. The value for `CN(C)CCC=C1c2ccccc2COc2ccc(CCO)cc21` was 100 to 102 °C.

Compound `CS(=O)(=O)Nc1ccc([N+](=O)[O-])cc1SC1CCCCC1` registered a melting point of 140 °C.

For `CCCC(C)(C)C(=O)NC1CCCNC(=O)C1` (configuration not stated), the melting point was 84 to 85 °C. Under `COc1ccc(OC)c(C2OC(=O)c3c(OC)ccc(C)c32)c1` (configuration not stated) stands 121 to 123 °C; under `COc1ccc(C)c(NC(=O)CCl)c1`, 89 to 91 °C; under `Cc1cn(CCC(=O)N(C)C)nc1-c1ccccc1`, 60 to 63 °C. Under `CCC(=O)c1cc(SC)cc(CNC(=O)CCl)c1O` stands 202 to 204 °C; under `O=C(NC(=O)C(F)(F)F)c1ccccc1-c1noc(-c2ccccc2F)n1`, 119 to 120 °C. `Cc1ccc(C2OC(CO)C(O)C(O)C2O)cc1Cc1ccc(-c2ccc(F)nc2)s1` (configuration not stated) yielded a melting point of 130 to 132 °C.

In turn, `COc1cc(O)c(C(=O)C=Cc2ccc(O)c(OC)c2)c(OC)c1` showed a melting point of 177 °C. Under `CN1CCN(C2=Nc3cc(C(F)(F)F)ccc3Nc3nn(C)nc32)CC1` stands 109 to 111 °C; under `COc1ccc2c(c1)CCC1CCNC(=O)C(CC(C)N(Cc3ccccc3)C(C)C)=C21` (configuration not stated), 205 to 207 °C.

`COC(=O)c1[nH]c2c(C)ccc(C)c2c1C(=O)OC` yielded a melting point of 143 to 144 °C. As to `COc1cc2c(cc1S(N)(=O)=O)CCN(C(C)=O)CC2`, the melting point lay within 260 to 263 °C. The value for `Cn1cncc1C(O)(c1ccc(Cl)cc1)c1ccc2c(c1)c(CCc1ccc(Cl)s1)cc(=O)n2C` (configuration not stated) was 128 °C; that for `COC(=O)c1ccc2c(c1)S(=O)(=O)c1ccccc1C2=O` was 145 to 146 °C. In turn, `CS(=O)(=O)c1ccc(-c2cnn(CC(F)(F)F)c(=O)c2NCCCO)cc1` came in with a melting point of 152 to 154 °C. Under `CN(CCc1ccc2c(c1)OCO2)C(C)(C)CCC(C(N)=O)(c1ccccc1)c1ccccc1` stands 165 °C. Under `N#CN=C(Nc1ccc(C#N)cc1O)Nc1cccc(Cl)c1Cl` stands 155 to 156 °C; under `COc1cc2c(cc1Nc1ncc(Cl)c(Nc3ccccc3OC)n1)CCN(CC(=O)N(C)C)CC2`, 65 to 85 °C; under `COc1ccc(CSc2nc(O)cc(C(F)(F)F)n2)cc1`, 169 to 170 °C. The value for `CCOC(=O)Cc1ccc(NC(=O)C(NS(=O)(=O)c2ccc(Cl)cc2)C(C)C)cc1` (racemic) was 100 to 102 °C. Consider `CC(=O)N1CCC(Oc2ccc(N3CCOCC3)cc2)CC1`, for which the melting point lay within 208 to 209 °C.

In turn, `CCOC(=O)NNc1ccc(-c2ccccc2)nn1` gave a melting point of 158 to 160 °C.

As for `CC(=O)OC1CSC(Oc2ccc(C)nc2-c2ccoc2)C(OC(C)=O)C1OC(C)=O` (configuration not stated), the melting point stood at 117 °C. For `NC(=S)c1ccc(I)cc1`, the melting point fell in the range of 163 to 165 °C. Under `O=C1CC[C@H]2CC3(C=C[C@@H]2C1)OCCO3` (relative stereo) stands 58 to 59 °C; under `CCC1C(C)=NN=C(c2ccc(OC)cc2)c2cc(OC)c(OC)cc21` (configuration not stated), 157 to 159 °C. Compound `CON=C(c1noc(C)n1)c1cc(Cl)ccc1OCc1ccc(Cl)cc1` showed a melting point of 127 to 128 °C. Under `COC1=C(OC)C(=O)NC1=O` stands 126 to 127 °C; under `NOc1ccc2c(c1)CCCC2=O`, 55.5 to 57 °C. For the compound `CCOC(=O)C1=C(C)NC(COC(=O)CCC(=O)O)=C(C(=O)OCC)C1c1ccccc1Cl` (configuration not stated), the melting point fell in the range of 130 to 131 °C. `Cn1cc(C2=C(c3c4n(c5ccccc35)CCC(C(N)=O)C4)C(=O)NC2=O)c2ccccc21` (configuration not stated): the melting point was 315 to 316 °C. Under `Cc1cc(C)cc(C(=O)NC(=S)Nc2c(O)cc(C)c(Br)c2C)c1` stands 164 to 166 °C; under `Nc1sc2c(c1C(=O)c1cccc(CF)c1)CCN(Cc1ccccc1)C2`, 58 to 60 °C. The value for `FC(F)(F)c1cnc(-n2ccc3ccncc32)c(Cl)c1` was 88 to 90 °C; that for `C=Cn1cc(C(=O)O)c(=O)c2cc(F)c(N3CCNCC3)nc21` was 256 to 260 °C. The value for `COC(=O)C(NS(=O)(=O)Cc1c(Cl)c(C)cc2nc(OC)c(OC)nc12)c1ccccc1` (configuration not stated) was 214 to 217 °C. `Cc1occc1C(=O)Nc1ccc(C(=O)N2Cc3cccn3Cc3ccccc32)cn1` returned a melting point of 210 to 212 °C.

The compound `CN1CCCC1CC(O)c1cccc(O)c1` (configuration not stated) showed a melting point of 147 to 150 °C. As to `O=c1cc(-c2nnn[nH]2)oc2cc(CCc3cccc(OCc4ccc5ccccc5n4)c3)ccc12`, the melting point lay in the range of 201 to 205 °C.

`CCCCCCCCCCCCNS(=O)(=O)c1cccc(C(F)(F)F)c1` gave a melting point of 65 to 68 °C.

The compound `Cc1nc2c(C(=O)O)c(C(=O)O)ccc2n1Cc1ccccc1` yielded a melting point of 224 to 226 °C. Under `Cc1cccc(-c2nc3ccc(OCCN(C)C)cc3n2Cc2ccccc2Br)c1` stands 71 °C; under `CCCCc1oc2ccccc2c1C(Sc1nc2ccccc2s1)c1ccc(-c2ccc(O)cc2)cc1` (configuration not stated), 130 to 132 °C; under `CN1C(=O)N(c2c(Cl)cccc2Cl)Cc2cnc(Nc3ccc(F)cc3)nc21`, 208 to 211 °C.

`Cc1cc(CC(=O)O)ccc1NC(=O)Nc1ccccc1C(F)(F)F` registered a melting point of 262 to 263 °C. Take `CCCC(=O)C1=C(O)CC(C2(C)CC(C(C)CC)=NO2)CC1=O` (configuration not stated): the melting point is 53 to 55 °C. The value for `Cc1c2n(c3ccccc13)C(=O)C(C(O)c1cn(C(c3ccccc3)(c3ccccc3)c3ccccc3)c(C)n1)CC2` (configuration not stated) was 135 to 136 °C; that for `CC(CC(C(=O)N(C)C)(c1ccccc1)c1ccccc1)N1CCC(NC(=O)c2cnc[nH]2)C(O)C1` (configuration not stated) was 155 °C. The compound `CC(C)(C(=O)c1ccc(C(=O)c2ccc(C(=O)C(C)(C)N3CCOCC3)cc2)cc1)N1CCOCC1` showed a melting point of 145 to 147 °C. The value for `COc1ccc(-n2ccnc2C(c2cc(F)ccc2F)S(=O)(=O)c2ccc(Cl)cc2)cc1` (configuration not stated) was 150 to 151 °C; that for `CS(=O)c1ccc(OCCCOc2cc(OCCCCCCCCCCCCOc3ccccc3)cc(N(CC(=O)O)CC(=O)O)c2)cc1` (configuration not stated) was 106 to 108 °C; that for `Clc1ccc2c(c1)CCc1cccnc1C2=C1CCNCC1` was 154 to 155 °C. The value for `O=S(c1ccc(Cl)cc1)c1cc(C(F)(F)F)[nH]c1-c1ccc(Cl)cc1` (configuration not stated) was 174 to 176 °C; that for `CCOC(=O)CNC(=O)c1cccc(Cl)c1` was 70 to 72 °C.

`O=C(Nc1cc(-c2nnc(Cc3ccccc3)o2)ccn1)c1ccccc1` yielded a melting point of 187 to 189 °C. For the compound `CC(=O)NCC1CN(c2ccc(N3CCN(C=O)CC3)c(F)c2)C(=O)O1` (configuration not stated), the melting point fell in the range of 190 to 194 °C. The compound `CCOC(=O)c1cc(Nc2cccc(Cl)c2)c(C(=O)OCC)cc1Nc1cccc(Cl)c1` had a melting point of 145 to 146 °C.

`CCOC(=O)C1=C(N)NC(N)=C(C(=O)OCC)C1c1ccccc1OC` yielded a melting point of 147 °C.

As for `Cc1nc2cc(Cl)cc(Cl)c2o1`, the melting point fell in the range of 110 to 113 °C. On to `C1=C2CCC=C2CCCCCCCCC1`, for which the melting point was in the range of 97 to 102 °C.
